Key:
Format in all cases: in vivo
[1] = Bitter reduction of a bitter substance solution (caffeine), panel of experts; conditions: for Bitter sensation (1-10) Sample (caffeine + substance): grading 1 [not bitter] to 10 [extremely bitter]
Description: To quantify the reduction (i.e. the masking or reduction) of the bitter sensation in a sample, the bitterness of a solution containing 500 ppm of caffeine was compared by a panel of experts in each case with a sample which contained 500 ppm of caffeine and additionally 50 ppm or 100 ppm of a substance to be assessed (in respect of the bitter-reduction ability) (grading: 1 [not bitter] to 10 [extremely bitter]).
For the evaluation, i.e. the calculation of the reduction (in %) of the bitter sensation, the mean values of the assessments by the panel of experts of the caffeine solution and the sample, to be compared, containing caffeine and a substance to be assessed were used in each case. In this respect, 2,4-dihydroxybenzoic acid (2,4-DHB) was used as the comparison (reference) according to U.S. Pat. No. 5,643,941.

[2] = Enhancement of the sweet sensation of a sugar solution, Comparative Test 1, panel of experts; conditions: for Sweet sensation (1-10) Sample (sucrose + substance): grading 1 [not sweet] to 10 [extremely sweet]; for synergistic enhancement of the sweet taste of a sweet-tasting substance: according to our own experiments
Description: To quantify the enhancement of the sweet sensation, the sweetness of a 5% sucrose solution was compared by a panel of experts in each case with a sample which contained 5% of sucrose as well as 50 ppm or 100 ppm of a compound of formula (I) to be used according to the invention (grading: 1 [not sweet] to 10 [extremely sweet]).
For the evaluation, i.e. the calculation of the enhancement (in %) of the sweet sensation, the mean values of the assessments by the panel of experts of the sucrose solution and the sample, to be compared, containing sucrose and a compound of formula (I) were used in each case.

[3] = Comparative Test 2: inherent sweetness (sucrose equivalence) in water, panel of experts
Experimental: The inherent sweetness of compound 2 from Example 1, which was dissolved in water in a pure form in different concentrations (0.0025 or 0.0050% by weight in water) was determined by a panel of experts (panelists) using a series of comparisons of different sucrose concentrations in water (0; 0.25; 0.5; 0.75; 1; 1.5; 2; 3; 4 and 5% by weight sucrose in water).
(§1) The panelists were asked to test each solution of compound 2 in water against the sucrose series and to grade them according to their degree of sweetness (sucrose equivalent). It was possible to determine the inherent sweetness of compound 2 for the above-mentioned concentrations from the results provided by the panelists. In addition to the sucrose equivalence in water (i.e. without sucrose), the sucrose equivalence in a 5% sucrose solution was also determined.

[4] = Comparative Test 2: sucrose equivalence in a 5% sucrose solution, panel of experts; conditions: for Sucrose equivalence in a 5% sucrose solution, Calculation (5 + x) %: purely additive calculation; for synergy or synergistic additional effect: determined vs calculated sucrose equivalence
Experimental: as §1
It was possible to establish a clear synergistic sweetness enhancement even at a low concentration, not sweet per se, of approximately 25 ppm of compound 2 (from Example 1). From a purely calculational point of view, it was to be expected that a 5% sucrose solution (i.e. a sucrose solution which corresponds in sensory manner by definition to 5% sucrose equivalents) which contains 25 ppm or 50 ppm of compound 2 (from Example 1) produced a sweetness of approximately 5.84 or 6.45 sucrose equivalents by a purely additive effect of the inherent sweetness of compound 2 (see the determined sucrose equivalence in water). However, the sensory assessment of such a 5% sucrose solution with 25 ppm or 50 ppm of compound 2 (from Example 1) by the panelists produced an averaged sucrose equivalence of 6.8% or 8.2%. Considering the values to be expected from a purely calculational point of view, this corresponds to a synergy or a synergistic additional effect of approximately 17% or 27%.

[5] = 50 ppm substance + 500 ppm caffeine vs 500 ppm caffeine solution
[6] = 50 ppm substance + 500 ppm caffeine
[7] = 50 ppm substance + 5% sucrose vs 5% sucrose solution

Compound | Reduction of the bitter sensation [1, 5] [%] | Bitter sensation (1-10) Sample (caffeine + substance) [1, 6] | Enhancement of the sweet sensation [2, 7] [%] | Sweet sensation (1-10) Sample (sucrose + substance) ([2]; 50 ppm substance + 5% sucrose) | other results
COc1ccc(C2CCc3ccc(O)cc3O2)cc1O (racemic) [compound 2, 3′,7-dihydroxy-4′-methoxyflavan] | 27 | 3.9 ± 1.9 | 57 | 8.1 ± 1.3 | synergistic enhancement of the sweet taste of a sweet-tasting substance [2]: particularly strong synergistic enhancement; Determination of the sucrose equivalence in water (without sucrose) ([3]; 0.0025 % by weight in water): 0.84%; Determination of the sucrose equivalence in water (without sucrose) ([3]; 0.0050 % by weight in water): 1.45%; Sucrose equivalence in a 5% sucrose solution, Determination ([4]; 0.0025 % by weight (25 ppm) in 5% sucrose solution): 6.8%; Sucrose equivalence in a 5% sucrose solution, Calculation (5 + x) % ([4]; 0.0025 % by weight): 5.84%; Sucrose equivalence in a 5% sucrose solution, Determination ([4]; 0.0050 % by weight (50 ppm) in 5% sucrose solution): 8.2%; Sucrose equivalence in a 5% sucrose solution, Calculation (5 + x) % ([4]; 0.0050 % by weight): 6.45%; sweetness to be expected by a purely additive effect of the inherent sweetness ([4]; 25 ppm in 5% sucrose solution): approximately 5.84 sucrose equivalents; synergy or synergistic additional effect ([4]; 25 ppm in 5% sucrose solution): approximately 17%; sweetness to be expected by a purely additive effect of the inherent sweetness ([4]; 50 ppm in 5% sucrose solution): ~6.45 sucrose equivalents; synergy or synergistic additional effect ([4]; 50 ppm in 5% sucrose solution): ~27%
O=C(O)c1ccc(O)cc1O [2,4-DHB, 2,4-dihydroxybenzoic acid, reference compound] | – | – | – | – | Reduction of the bitter sensation ([1]; 100 ppm substance + 500 ppm caffeine vs 500 ppm caffeine solution): 3%; Bitter sensation (1-10) Sample (caffeine + substance) ([1]; 100 ppm substance + 500 ppm caffeine): 5.0 ± 1.0
Oc1ccc(C2CCc3ccc(O)cc3O2)cc1 (stereo not shown) [compound 1, 4′,7-dihydroxyflavan] | – | – | – | – | Enhancement of the sweet sensation ([2]; 100 ppm substance + 5% sucrose vs 5% sucrose solution): 21%; Sweet sensation (1-10) Sample (sucrose + substance) ([2]; 100 ppm substance + 5% sucrose): 6.2 ± 1.5; synergistic enhancement of the sweet taste of a sweet-tasting substance [2]: particularly strong synergistic enhancement
COc1cc(C2CCc3ccc(O)cc3O2)ccc1O (stereo not shown) [compound 3, 4′,7-dihydroxy-3″-methoxyflavan] | 15 | 4.1 ± 1.4 | – | – | –
Oc1ccc(C2CCc3c(O)cc(O)cc3O2)cc1 (stereo not shown) [compound 14, 4′,5,7-trihydroxyflavan] | 26 | 3.8 ± 1.9 | – | – | –
COc1ccc(C2CCc3c(O)cc(O)cc3O2)cc1O (stereo not shown) [compound 15, 3′,5,7-trihydroxy-4′-methoxyflavan] | 15 | 3.8 ± 1.5 | 21 | 5.8 ± 1.6 | –
COc1cc(C2CCc3c(O)cc(O)cc3O2)ccc1O (stereo not shown) [compound 16, 4′,5,7-trihydroxy-3′-methoxyflavan] | 5 | 4.1 ± 2.0 | – | – | –
COc1ccc([C@@H]2CCc3ccc(O)cc3O2)cc1O [compound S-2, (2S)-3′,7-dihydroxy-4″-methoxyflavan] | 16 | 3.9 ± 1.5 | 36 | 7.8 ± 1.7 | –

— patent publication US20100292175A1, “USE OF HYDROXYFLAVAN DERIVATIVES FOR TASTE MODIFICATION” (Leibniz-Institut fur Pflanzenbiochemie, priority 2009, published 2010)
